Experimental data from patent US6693114B2, “4-oxo-1,4-dihydro[1,8]naphthyridine-3-carboxamides as antiviral agents” (Pharmacia & Upjohn Company, priority 2000, dated 2004).

Experiments:
HCMV polymerase = biological target: T1, HCMV polymerase (Human cytomegalovirus, UniProt P08546); assay: HCMV polymerase assay (scintillation proximity assay, modified version); format: biochemical; conditions: for IC50: modified HCMV polymerase SPA assay, compounds diluted in 100% DMSO, 4.5 mM DTT
T1 construct: made in house; host or cells: recombinant baculovirus-infected SF-9 cells
T1 sequence (P08546 whole entry): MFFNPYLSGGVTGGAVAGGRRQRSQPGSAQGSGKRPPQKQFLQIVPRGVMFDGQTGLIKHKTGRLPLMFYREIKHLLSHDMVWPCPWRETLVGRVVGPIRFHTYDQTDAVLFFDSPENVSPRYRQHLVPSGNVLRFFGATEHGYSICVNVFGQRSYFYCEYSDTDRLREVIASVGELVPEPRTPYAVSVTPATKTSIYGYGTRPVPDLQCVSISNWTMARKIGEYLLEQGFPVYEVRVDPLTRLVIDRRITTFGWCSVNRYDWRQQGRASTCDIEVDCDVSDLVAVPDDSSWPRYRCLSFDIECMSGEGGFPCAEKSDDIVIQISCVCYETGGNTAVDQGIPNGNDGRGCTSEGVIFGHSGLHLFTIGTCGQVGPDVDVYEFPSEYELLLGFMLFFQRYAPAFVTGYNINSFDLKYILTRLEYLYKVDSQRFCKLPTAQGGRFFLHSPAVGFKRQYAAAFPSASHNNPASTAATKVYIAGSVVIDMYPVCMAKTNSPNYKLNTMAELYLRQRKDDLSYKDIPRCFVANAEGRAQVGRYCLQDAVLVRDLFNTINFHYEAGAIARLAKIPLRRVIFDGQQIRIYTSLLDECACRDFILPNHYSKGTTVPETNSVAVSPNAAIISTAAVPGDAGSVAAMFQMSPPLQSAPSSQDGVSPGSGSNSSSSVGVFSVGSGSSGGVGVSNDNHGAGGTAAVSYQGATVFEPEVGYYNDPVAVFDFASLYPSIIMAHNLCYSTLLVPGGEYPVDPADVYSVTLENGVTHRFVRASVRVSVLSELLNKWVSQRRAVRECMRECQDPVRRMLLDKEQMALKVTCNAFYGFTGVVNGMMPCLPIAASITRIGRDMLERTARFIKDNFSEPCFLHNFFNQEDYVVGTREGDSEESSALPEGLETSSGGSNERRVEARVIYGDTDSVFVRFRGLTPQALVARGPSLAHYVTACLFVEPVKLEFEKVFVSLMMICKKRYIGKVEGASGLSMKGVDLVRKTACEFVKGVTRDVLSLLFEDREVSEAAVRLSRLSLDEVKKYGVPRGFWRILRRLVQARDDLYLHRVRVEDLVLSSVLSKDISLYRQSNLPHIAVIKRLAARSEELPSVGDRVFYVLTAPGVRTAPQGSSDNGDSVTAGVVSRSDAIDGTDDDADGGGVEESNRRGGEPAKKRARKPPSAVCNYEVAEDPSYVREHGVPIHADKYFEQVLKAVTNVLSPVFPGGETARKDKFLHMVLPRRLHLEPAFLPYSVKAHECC
Method: The HCMV polymerase assay is performed using a scintillation proximity assay (SPA) as described in several references, such as N. D. Cook, et al., Pharmaceutical Manufacturing International, pages 49-53 (1992); K. Takeuchi, Laboratory Practice, September issue (1992); U.S. Pat. No. 4,568,649 (1986); which are incorporated by reference herein. Reactions are performed in 96-well plates. The assay is conducted in 100 μl volume with 5.4 mM HEPES (pH 7.5), 11.7 mM KCl, 4.5 mM MgCl2, 0.36 mg/ml BSA, and 90 nM ^3H-dTTP. Assays are run with and without CHAPS, (3-[(3-cholamidopropyl)-dimethylammonio]-1-propane-sulfonate) at a final concentration of 2 mM. HCMV polymerase is diluted in enzyme dilution buffer containing 50% glycerol, 250 mM NaCl, 10 mM HEPES (pH 7.5), 100 μg/ml BSA, and 0.01% sodium azide. The HCMV polymerase, which is expressed in recombinant baculovirus-infected SF-9 cells and purified according to literature procedures, is added at 10% (or 10 μl) of the final reaction volume, i.e., 100 μl. Compounds are diluted in 50% DMSO and 10 μl are added to each well. Control wells contain an equivalent concentration of DMSO. Unless noted otherwise, reactions are initiated via the addition of 6 nM biotinylated poly(dA)-oligo(dT) template/primer to reaction mixtures containing the enzyme, substrate, and compounds of interest. Plates are incubated in a 25° C. or 37° C. H2O bath and terminated via the addition of 40 μl/reaction of 0.5 M EDTA (pH 8) per well. Reactions are terminated within the time-frame during which substrate incorporation is linear and varied depending upon the enzyme and conditions used, i.e., 30 min. for HCMV polymerase. Ten μl of streptavidin-SPA beads (20 mg/ml in PBS/10% glycerol) are added following termination of the reaction. Plates are incubated 10 min. at 37° C., then equilibrated to room temperature, and counted on a Packard Topcount. Linear regressions are performed and IC50's are calculated using computer software.
A modified version of the above HCMV polymerase assay is performed as described above, but with the following changes: Compounds are diluted in 100% DMSO until final dilution into assay buffer. In the previous assay, compounds are diluted in 50% DMSO. 4.5 mM dithiotherotol (DTT) is added to the polymerase buffer. […] All results are listed as Polymerase IC50 (μM) values. In Table 1, the term “nd” refers to activity data not determined.

HSV polymerase = HSV polymerase (Human herpesvirus 1, UniProt P04293); assay: HSV polymerase assay (Table 1, Polymerase IC50); format: biochemical; conditions: modified polymerase SPA assay
Sequence of HSV polymerase (P04293 whole entry): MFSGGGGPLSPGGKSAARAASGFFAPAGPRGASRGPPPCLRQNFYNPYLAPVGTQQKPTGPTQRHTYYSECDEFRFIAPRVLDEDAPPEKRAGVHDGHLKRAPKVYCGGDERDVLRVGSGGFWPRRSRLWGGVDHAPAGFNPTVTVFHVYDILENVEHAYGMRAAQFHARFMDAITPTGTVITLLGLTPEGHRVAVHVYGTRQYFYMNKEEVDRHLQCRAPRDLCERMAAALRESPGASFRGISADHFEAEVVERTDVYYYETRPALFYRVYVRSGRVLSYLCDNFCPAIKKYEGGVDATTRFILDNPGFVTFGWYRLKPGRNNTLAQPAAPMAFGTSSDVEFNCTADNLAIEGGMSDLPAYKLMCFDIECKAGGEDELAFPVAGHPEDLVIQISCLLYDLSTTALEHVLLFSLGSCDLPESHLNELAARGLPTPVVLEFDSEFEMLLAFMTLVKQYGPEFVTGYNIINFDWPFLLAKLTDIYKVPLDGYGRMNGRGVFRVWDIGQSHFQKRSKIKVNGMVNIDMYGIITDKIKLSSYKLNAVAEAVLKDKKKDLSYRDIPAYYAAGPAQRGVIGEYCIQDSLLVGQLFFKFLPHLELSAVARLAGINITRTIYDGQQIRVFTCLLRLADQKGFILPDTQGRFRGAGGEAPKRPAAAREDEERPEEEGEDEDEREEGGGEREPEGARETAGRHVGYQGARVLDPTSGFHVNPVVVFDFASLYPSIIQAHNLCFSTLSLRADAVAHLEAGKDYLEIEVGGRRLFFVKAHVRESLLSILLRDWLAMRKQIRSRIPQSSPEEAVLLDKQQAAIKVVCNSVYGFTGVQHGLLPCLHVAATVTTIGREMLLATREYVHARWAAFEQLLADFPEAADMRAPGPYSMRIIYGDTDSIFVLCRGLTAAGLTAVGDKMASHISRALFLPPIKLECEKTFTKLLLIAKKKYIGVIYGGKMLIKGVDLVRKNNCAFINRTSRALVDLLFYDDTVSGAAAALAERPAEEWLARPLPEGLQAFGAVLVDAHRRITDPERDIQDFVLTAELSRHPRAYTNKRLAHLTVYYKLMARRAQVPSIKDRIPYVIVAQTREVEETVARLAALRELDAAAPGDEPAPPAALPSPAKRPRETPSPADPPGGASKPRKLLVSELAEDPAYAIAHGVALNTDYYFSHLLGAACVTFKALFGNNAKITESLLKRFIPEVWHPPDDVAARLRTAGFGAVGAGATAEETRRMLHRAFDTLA

VZV polymerase = VZV polymerase (Varicella-zoster virus, UniProt P09252); assay: VZV polymerase assay (Table 1, Polymerase IC50); format: biochemical; conditions: modified polymerase SPA assay
Sequence of VZV polymerase (P09252 whole entry): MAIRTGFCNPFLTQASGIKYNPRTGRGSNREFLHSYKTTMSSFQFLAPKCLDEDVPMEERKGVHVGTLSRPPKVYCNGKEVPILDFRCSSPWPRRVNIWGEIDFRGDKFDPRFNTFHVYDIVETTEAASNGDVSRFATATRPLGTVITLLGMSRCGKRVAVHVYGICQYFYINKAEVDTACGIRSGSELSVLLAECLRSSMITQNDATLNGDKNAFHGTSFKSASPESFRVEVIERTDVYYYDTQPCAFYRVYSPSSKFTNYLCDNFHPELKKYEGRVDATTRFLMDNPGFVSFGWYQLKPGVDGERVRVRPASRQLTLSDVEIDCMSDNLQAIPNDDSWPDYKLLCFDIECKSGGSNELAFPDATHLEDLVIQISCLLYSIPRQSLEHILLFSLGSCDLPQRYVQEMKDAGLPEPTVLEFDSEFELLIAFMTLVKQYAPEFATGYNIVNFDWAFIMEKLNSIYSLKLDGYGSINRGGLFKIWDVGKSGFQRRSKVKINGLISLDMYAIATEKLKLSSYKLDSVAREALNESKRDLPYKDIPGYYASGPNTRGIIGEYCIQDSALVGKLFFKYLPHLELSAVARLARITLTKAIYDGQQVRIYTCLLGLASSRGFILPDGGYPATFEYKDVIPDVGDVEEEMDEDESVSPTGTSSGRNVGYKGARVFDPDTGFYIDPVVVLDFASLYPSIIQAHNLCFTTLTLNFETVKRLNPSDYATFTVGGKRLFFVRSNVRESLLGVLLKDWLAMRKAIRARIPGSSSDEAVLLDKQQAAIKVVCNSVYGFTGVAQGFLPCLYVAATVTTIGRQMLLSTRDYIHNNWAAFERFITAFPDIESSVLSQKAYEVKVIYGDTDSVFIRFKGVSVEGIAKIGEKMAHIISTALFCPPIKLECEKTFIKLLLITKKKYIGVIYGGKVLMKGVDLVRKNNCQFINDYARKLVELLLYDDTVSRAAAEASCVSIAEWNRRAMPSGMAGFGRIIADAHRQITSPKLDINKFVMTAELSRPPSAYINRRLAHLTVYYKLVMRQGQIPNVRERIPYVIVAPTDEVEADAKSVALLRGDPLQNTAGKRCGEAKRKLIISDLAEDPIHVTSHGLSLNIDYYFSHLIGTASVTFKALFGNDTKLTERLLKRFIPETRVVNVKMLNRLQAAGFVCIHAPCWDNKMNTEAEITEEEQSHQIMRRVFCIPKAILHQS

IC50 (HCMV polymerase) [nM]	IC50 (HSV polymerase) [nM]	melting point [°C]	IC50 (VZV polymerase) [nM]	inhibition at 20 µM (HCMV polymerase; at 20 μM) [%]	SMILES
1170					COc1nc2c(cc1C#CCO)c(=O)c(C(=O)NCc1ccc(Cl)cc1)cn2C [Example 6, N-(4-chlorobenzyl)-6-(3-hydroxy-1-propynyl)-7-methoxy-1-methyl-4-oxo-1,4-dihydro[1,8]naphthyridine-3-carboxamide]
1800	1900	217 to 218	1100		Cc1nc2c(cc1C#CCO)c(=O)c(C(=O)NCc1ccc(Cl)cc1)cn2C [Example 2, N-(4-chlorobenzyl)-6-(3-hydroxy-1-propynyl)-1,7-dimethyl-4-oxo-1,4-dihydro[1,8]naphthyridine-3-carboxamide]
		266 to 268			Cc1nc2c(cc1Br)c(=O)c(C(=O)NCc1ccc(Cl)cc1)cn2C [Example 1, 6-bromo-N-(4-chlorobenzyl)-1,7-dimethyl-4-oxo-1,4-dihydro[1,8]naphthyridine-3-carboxamide]
22300					COc1nc2c(cc1I)c(=O)c(C(=O)NCc1ccc(Cl)cc1)cn2C [Example 4, N-(4-Chlorobenzyl)-6-iodo-7-methoxy-1-methyl-4-oxo-1,4-dihydro[1,8]naphthyridine-3-carboxamide]
				37	CCOC(=O)c1cc2c(=O)c(C(=O)NCc3ccc(Cl)cc3)cn(C)c2nc1OC [Example 8, Ethyl 6-{[(4-chlorobenzyl)amino]carbonyl}-2-methoxy-8-methyl-5-oxo-5,8-dihydro[1,8]naphthyridine-3-carboxylate]
460					COc1nc2c(cc1CCCO)c(=O)c(C(=O)NCc1ccc(Cl)cc1)cn2C [Example 7, N-(4-Chlorobenzyl)-6-(3-hydroxypropyl)-7-methoxy-1-methyl-4-oxo-1,4-dihydro[1,8]naphthyridine-3-carboxamide]
2700	2400	176 to 177	1400		Cc1nc2c(cc1CCCO)c(=O)c(C(=O)NCc1ccc(Cl)cc1)cn2C [Example 3, N-(4-chlorobenzyl)-6-(3-hydroxypropyl)-1,7-dimethyl-4-oxo-1,4-dihydro[1,8]naphthyridine-3-carboxamide]
17100					Cn1cc(C(=O)NCc2ccc(Cl)cc2)c(=O)c2ccc(=O)[nH]c21 [Example 5, N-(4-Chlorobenzyl)-1-methyl-4,7-dioxo-1,4,7,8-tetrahydro[1,8]naphthyridine-3-carboxamide]
